In patent publication US11691962B2 (eXIthera Pharmaceuticals, Inc., priority 2018, dated 2023):
pIC50: −log10 of the molar value.

Legend:
Format in all cases: biochemical
Factor XIa = Factor XIa (Homo sapiens (Human), UniProt P03951); assay: Factor XIa enzyme inhibition assay (dose response, fluorogenic AMC substrate); conditions: read-out: hFXIa IC50
Summary of the method: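 Fluorogenic progress curves (30 min, 1-min reads, 30° C) were recorded for 0.25 nM FXIa cleaving 50 μM Glp-Pro-Arg-AMC in Hepes pH 7.4 buffer with NaCl and Tween 20. Compounds were serially two-fold diluted, and IC50 was fitted with a Hill equation.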

Factor Xa = Factor Xa (Homo sapiens (Human), UniProt P00742); assay: Dose response assay for protease inhibitors: Factor Xa; conditions: selectivity, Factor Xa over Factor XIa
Chain of Factor Xa (P00742 235-488): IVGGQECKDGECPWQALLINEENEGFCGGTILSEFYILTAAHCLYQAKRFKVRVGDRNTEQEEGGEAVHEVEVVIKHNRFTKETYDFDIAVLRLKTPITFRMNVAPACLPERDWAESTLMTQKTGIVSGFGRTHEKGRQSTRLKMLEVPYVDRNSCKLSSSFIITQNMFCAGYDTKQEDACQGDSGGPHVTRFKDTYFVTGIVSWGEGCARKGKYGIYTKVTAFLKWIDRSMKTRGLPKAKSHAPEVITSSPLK
Chain of Factor Xa (P00742 41-179 partner): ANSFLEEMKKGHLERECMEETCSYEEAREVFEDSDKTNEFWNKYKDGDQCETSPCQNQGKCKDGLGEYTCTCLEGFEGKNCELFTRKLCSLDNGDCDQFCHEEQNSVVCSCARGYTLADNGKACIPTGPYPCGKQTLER
Summary of the method: (§1)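 Glp-Pro-Arg-AMC substrate (thrombin, trypsin) or Pro-Phe-Arg-AMC/Boc-Leu-Gly-Arg-AMC (Factor Xa), diluted to 100 μM, in 20 mM Hepes pH 7.4, 150 mM NaCl, 0.02% Tween 20; enzyme diluted to 0.5 nM before addition. Two-fold serial compound dilutions; kinetic reads at 30° C. Data yield IC50 and Kon.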

Thrombin = Thrombin (Homo sapiens (Human), UniProt P00734); assay: Dose response assay for protease inhibitors: thrombin; conditions: selectivity, thrombin over Factor XIa
Summary of the method: as §1

Trypsin = assay: Dose response assay for protease inhibitors: trypsin; conditions: selectivity, trypsin over Factor XIa
Summary of the method: as §1

Chain of Factor XIa (P03951 388-625): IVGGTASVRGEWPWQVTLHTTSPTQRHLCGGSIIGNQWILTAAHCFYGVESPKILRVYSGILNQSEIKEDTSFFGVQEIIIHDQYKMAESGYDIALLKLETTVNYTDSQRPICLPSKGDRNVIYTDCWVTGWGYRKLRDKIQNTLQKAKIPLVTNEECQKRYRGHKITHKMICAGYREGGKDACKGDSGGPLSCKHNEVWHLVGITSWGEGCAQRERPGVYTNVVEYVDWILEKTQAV
Chain of Factor XIa (P03951 19-387 partner): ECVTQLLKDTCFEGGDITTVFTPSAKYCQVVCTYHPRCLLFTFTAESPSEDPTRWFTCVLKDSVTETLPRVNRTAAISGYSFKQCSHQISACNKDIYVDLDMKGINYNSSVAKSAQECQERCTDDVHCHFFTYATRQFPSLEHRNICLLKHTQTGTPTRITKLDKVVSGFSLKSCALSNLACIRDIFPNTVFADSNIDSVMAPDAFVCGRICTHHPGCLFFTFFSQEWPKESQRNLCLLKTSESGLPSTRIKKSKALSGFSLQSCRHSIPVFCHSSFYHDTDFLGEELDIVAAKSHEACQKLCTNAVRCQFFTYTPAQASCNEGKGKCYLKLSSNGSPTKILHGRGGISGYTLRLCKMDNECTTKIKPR

## CC[C@@H](NC(=O)N1C(=O)[C@H](Cc2ccnc(N)c2)[C@H]1C(=O)N(C)c1ccn(C)n1)c1ccc(C)c(F)c1 [Compound 1-136, (2S,3R)-3-((2-aminopyridin-4-yl)methyl)-N2-(1-methyl-1H-pyrazol-3-yl)-N1-((R)-1-(3-fluoro-4-methylphenyl)propyl)-N2-methyl-4-oxoazetidine-1,2-dicarboxamide]
Factor XIa
  pIC50: > 8.00
Factor Xa
  Ratio: FXa/FXIa: H (“H” indicates 101-1000)
Thrombin
  Ratio: Thrombin/FXIa: H (“H” indicates 101-1000)
Trypsin
  Ratio: Trypsin/FXIa: G (“G” indicates 1-100)

## CC[C@@H](NC(=O)N1C(=O)[C@H](Cc2cc(C)nc(N)c2)[C@H]1C(=O)N(C)c1ccn(C)n1)c1cc(C)ccc1F [Compound 1-143, (2S,3R)-3-((2-amino-6-methylpyridin-4-yl)methyl)-N2 (1-methyl-1H-pyrazol-3-yl)-N1-((R)-1-(2-fluoro-5-methylphenyl)propyl)-N2-methyl-4-oxoazetidine-1,2-dicarboxamide]
Factor XIa
  pIC50: > 8.00
Factor Xa
  Ratio: FXa/FXIa: I (“I” indicates > 500)
Thrombin
  Ratio: Thrombin/FXIa: H (“H” indicates 101-1000)
Trypsin
  Ratio: Trypsin/FXIa: G (“G” indicates 1-100)

## CC[C@@H](NC(=O)N1C(=O)[C@H](Cc2cc(C)nc(N)c2)[C@H]1C(=O)N(C)c1ccn(C)n1)c1cc(F)ccc1F [Compound 1-144, (2S,3R)-3-((2-amino-6-methylpyridin-4-yl)methyl)-N2-(1-methyl-1H-pyrazol-3-yl)-N1-((R)-1-(2,5-difluorophenyl)propyl)-N2-methyl-4-oxoazetidine-1,2-dicarboxamide]
Factor XIa
  pIC50: > 8.00
Factor Xa
  Ratio: FXa/FXIa: I (“I” indicates > 500)
Thrombin
  Ratio: Thrombin/FXIa: H (“H” indicates 101-1000)
Trypsin
  Ratio: Trypsin/FXIa: G (“G” indicates 1-100)

## CC[C@@H](NC(=O)N1C(=O)[C@H](Cc2cc(C)nc(N)c2)[C@H]1C(=O)N(C)c1ccn(C)n1)c1cccc(F)c1F [Compound 1-146, (2S,3R)-3-((2-amino-6-methylpyridin-4-yl)methyl)-N2-(1-methyl-1H-pyrazol-3-yl)-N1-((R)-1-(2,3-difluorophenyl)propyl)-N2-methyl-4-oxoazetidine-1,2-dicarboxamide]
Factor XIa
  pIC50: > 8.00
Factor Xa
  Ratio: FXa/FXIa: I (“I” indicates > 500)
Thrombin
  Ratio: Thrombin/FXIa: H (“H” indicates 101-1000)
Trypsin
  Ratio: Trypsin/FXIa: G (“G” indicates 1-100)

## CC[C@@H](NC(=O)N1C(=O)[C@H](Cc2cc(C)nc(N)c2)[C@H]1C(=O)N(C)c1ccnn1C)c1cccc(F)c1F [Compound 1-151, (2S,3R)-3-((2-amino-6-methylpyridin-4-yl)methyl)-N2-(1-methyl-1H-pyrazol-5-yl)-N1-((R)-1-(2,3-difluorophenyl)propyl)-N2-methyl-4-oxoazetidine-1,2-dicarboxamide]
Factor XIa
  pIC50: > 8.00
Factor Xa
  Ratio: FXa/FXIa: I (“I” indicates > 500)
Thrombin
  Ratio: Thrombin/FXIa: I (“I” indicates > 500)
Trypsin
  Ratio: Trypsin/FXIa: G (“G” indicates 1-100)

## CC[C@@H](NC(=O)N1C(=O)[C@H](Cc2cc(C)nc(N)c2)[C@H]1C(=O)N(C)c1ccnn1C)c1cc(F)ccc1C [Compound 1-162, (2S,3R)-3-((2-amino-6-methylpyridin-4-yl)methyl)-N2-(1-methyl-1H-pyrazol-5-yl)-N1-((R)-1-(5-fluoro-2-methylphenyl)propyl)-N2-methyl-4-oxoazetidine-1,2-dicarboxamide]
Factor XIa
  pIC50: > 8.00
Factor Xa
  Ratio: FXa/FXIa: I (“I” indicates > 500)
Thrombin
  Ratio: Thrombin/FXIa: I (“I” indicates > 500)
Trypsin
  Ratio: Trypsin/FXIa: G (“G” indicates 1-100)

## CC[C@@H](NC(=O)N1C(=O)[C@H](Cc2cc(C)nc(N)c2)[C@H]1C(=O)N(C)c1ccnn1C)c1cc(F)ccc1F [Compound 1-163, (2S,3R)-3-((2-amino-6-methylpyridin-4-yl)methyl)-N2-(1-methyl-1H-pyrazol-5-yl)-N1-((R)-1-(2,5-difluorophenyl)propyl)-N2-methyl-4-oxoazetidine-1,2-dicarboxamide]
Factor XIa
  pIC50: > 8.00
Factor Xa
  Ratio: FXa/FXIa: I (“I” indicates > 500)
Thrombin
  Ratio: Thrombin/FXIa: I (“I” indicates > 500)
Trypsin
  Ratio: Trypsin/FXIa: G (“G” indicates 1-100)

## CC[C@@H](NC(=O)N1C(=O)[C@H](Cc2cc(C)nc(N)c2)[C@H]1C(=O)N(C)c1cnn(C)c1)c1cc(F)ccc1F [Compound 1-182, (2S,3R)-3-((2-amino-6-methylpyridin-4-yl)methyl)-N2-(1-methyl-1H-pyrazol-4-yl)-N1-((R)-1-(2,5-difluorophenyl)propyl)-N2-methyl-4-oxoazetidine-1,2-dicarboxamide]
Factor XIa
  pIC50: > 8.00
Factor Xa
  Ratio: FXa/FXIa: I (“I” indicates > 500)
Thrombin
  Ratio: Thrombin/FXIa: H (“H” indicates 101-1000)
Trypsin
  Ratio: Trypsin/FXIa: G (“G” indicates 1-100)

## CC[C@@H](NC(=O)N1C(=O)[C@H](Cc2cc(C)nc(N)c2)[C@H]1C(=O)N(C)c1cnn(C)c1)c1cc(C)cc(F)c1 [Compound 1-184, (2S,3R)-3-((2-amino-6-methylpyridin-4-yl)methyl)-N2-(1-methyl-1H-pyrazol-4-yl)-N1-((R)-1-(3-fluoro-5-methylphenyl)propyl)-N2-methyl-4-oxoazetidine-1,2-dicarboxamide]
Factor XIa
  pIC50: > 8.00
Factor Xa
  Ratio: FXa/FXIa: I (“I” indicates > 500)
Thrombin
  Ratio: Thrombin/FXIa: H (“H” indicates 101-1000)
Trypsin
  Ratio: Trypsin/FXIa: G (“G” indicates 1-100)

## CC[C@@H](NC(=O)N1C(=O)[C@H](Cc2cc(C)nc(N)c2)[C@H]1C(=O)N(C)c1cnn(C)c1)c1cc(C)cc(C)c1 [Compound 1-185, (2S,3R)-3-((2-amino-6-methylpyridin-4-yl)methyl)-N2-(1-methyl-1H-pyrazol-4-yl)-N1-((R)-1-(3,5-dimethylphenyl)propyl)-N2-methyl-4-oxoazetidine-1,2-dicarboxamide]
Factor XIa
  pIC50: > 8.00
Factor Xa
  Ratio: FXa/FXIa: I (“I” indicates > 500)
Thrombin
  Ratio: Thrombin/FXIa: H (“H” indicates 101-1000)
Trypsin
  Ratio: Trypsin/FXIa: G (“G” indicates 1-100)

## CC[C@@H](NC(=O)N1C(=O)[C@H](Cc2ccnc(N)c2)[C@H]1C(=O)N(C)c1nccn1C)c1cc(F)c(F)c(F)c1 [Compound 1-193, (2S,3R)-3-((2-aminopyridin-4-yl)methyl)-N2-(1-methyl-1H-imidazol-2-yl)-N1-((R)-1-(3,4,5-trifluorophenyl)propyl)-N2-methyl-4-oxoazetidine-1,2-dicarboxamide]
Factor XIa
  pIC50: > 8.00
Factor Xa
  Ratio: FXa/FXIa: I (“I” indicates > 500)
Thrombin
  Ratio: Thrombin/FXIa: H (“H” indicates 101-1000)
Trypsin
  Ratio: Trypsin/FXIa: G (“G” indicates 1-100)

## CC[C@@H](NC(=O)N1C(=O)[C@H](Cc2ccnc(N)c2)[C@H]1C(=O)N(C)c1nccn1C)c1ccc(F)c(C)c1F [Compound 1-194, (2S,3R)-3-((2-aminopyridin-4-yl)methyl)-N2-(1-methyl-1H-imidazol-2-yl)-N1-((R)-1-(2,4-difluoro-3-methylphenyl)propyl)-N2-methyl-4-oxoazetidine-1,2-dicarboxamide]
Factor XIa
  pIC50: > 8.00
Factor Xa
  Ratio: FXa/FXIa: I (“I” indicates > 500)
Thrombin
  Ratio: Thrombin/FXIa: H (“H” indicates 101-1000)
Trypsin
  Ratio: Trypsin/FXIa: H (“H” indicates 101-1000)

## CC[C@@H](NC(=O)N1C(=O)[C@H](Cc2ccnc(N)c2)[C@H]1C(=O)N(C)c1ccn(C)n1)c1cc(F)c(F)c(F)c1 [Compound 1-197, (2S,3R)-3-((2-aminopyridin-4-yl)methyl)-N2-(1-methyl-1H-pyrazol-3-yl)-N1-((R)-1-(3,4,5-trifluorophenyl)propyl)-N2-methyl-4-oxoazetidine-1,2-dicarboxamide]
Factor XIa
  pIC50: > 8.00
Factor Xa
  Ratio: FXa/FXIa: I (“I” indicates > 500)
Thrombin
  Ratio: Thrombin/FXIa: I (“I” indicates > 500)
Trypsin
  Ratio: Trypsin/FXIa: H (“H” indicates 101-1000)

## CC[C@@H](NC(=O)N1C(=O)[C@H](Cc2ccnc(N)c2)[C@H]1C(=O)N(C)c1ccn(C)n1)c1ccc(F)c(C)c1F [Compound 1-198, (2S,3R)-3-((2-aminopyridin-4-yl)methyl)-N2-(1-methyl-1H-pyrazol-3-yl)-N1-((R)-1-(2,4-difluoro-3-methylphenyl)propyl)-N2-methyl-4-oxoazetidine-1,2-dicarboxamide]
Factor XIa
  pIC50: > 8.00
Factor Xa
  Ratio: FXa/FXIa: I (“I” indicates > 500)
Thrombin
  Ratio: Thrombin/FXIa: H (“H” indicates 101-1000)
Trypsin
  Ratio: Trypsin/FXIa: H (“H” indicates 101-1000)

## CC[C@@H](NC(=O)N1C(=O)[C@H](Cc2ccnc(N)c2)[C@H]1C(=O)N(C)c1cnn(C)c1)c1cc(F)c(F)c(F)c1 [Compound 1-199, (2S,3R)-3-((2-aminopyridin-4-yl)methyl)-N2-(1-methyl-1H-pyrazol-4-yl)-N1-((R)-1-(3,4,5-trifluorophenyl)propyl)-N2-methyl-4-oxoazetidine-1,2-dicarboxamide]
Factor XIa
  pIC50: > 8.00
Factor Xa
  Ratio: FXa/FXIa: I (“I” indicates > 500)
Thrombin
  Ratio: Thrombin/FXIa: H (“H” indicates 101-1000)
Trypsin
  Ratio: Trypsin/FXIa: H (“H” indicates 101-1000)
